Results from US8586505B2 (SDS Biotech K. K., priority 2009, dated 2013).

Key:
Type in all cases: in vivo
[1] = system: Pseudoperonospora cubensis; assay: Test of examining control effect on Pseudoperonospora cubensis (potted cucumber plants); settings: 96 h, 10% wettable powder adjusted to 125 ppm, 15 ml/pot sprayed on potted cucumber plants one day before spray inoculation, assessed after 1 day wet chamber and 3 days greenhouse, read-out: Determination of control effect (preventive value) on Pseudoperonospora cubensis
Procedure: (§1) Calculation of Preventive Value: Preventive value={(untreated lesion area rate−treated lesion area rate)/untreated lesion area rate}×100
(§2) Using the thus calculated preventive value, the control effect of each compound was determined in accordance with the following standards.
(§3) High control effect: 100%≧preventive value≧60%
(§4) Low control effect: 60%>preventive value≧0%
Using a spray gun, an agent solution prepared by adjusting a 10% wettable powder of each sample compound to 125 ppm (hereinafter referred to as a “sample agent solution”) was sprayed to potted cucumber plants (variety: Sagamihanjiro, 2.5 leave stage) in a concentration of 15 ml/pot. One day after the spraying, a conidial suspension of Pseudoperonospora cubensis (conidial concentration: 1.0×10^4 cells/ml) was applied to the plants by spray inoculation. After completion of the inoculation, the plants were left at 21° C. under wet chamber conditions for 1 day, and were then left in a greenhouse for 3 days, so that they were fully infected with the aforementioned disease. Thereafter, the disease level on each leaf was compared with that on an untreated leaf, and the control effect of each compound was determined in the same manner as in Example 3(1).

Sphaerotheca fuliginea = assay: Test of examining control effect on Sphaerotheca fuliginea (potted cucumber plants); settings: Podosphaera fuliginea, 336 h; 10% wettable powder adjusted to 125 ppm, 15 ml/pot sprayed on potted cucumber plants one day before spray inoculation; assessed after 14 days in greenhouse; read-out: Determination of control effect (preventive value) on Sphaerotheca fuliginea
Procedure: as §1, §2, §3, §4
Using a spray gun, an agent solution prepared by adjusting a 10% wettable powder of each sample compound to 125 ppm (hereinafter referred to as a “sample agent solution”) was sprayed to potted cucumber plants (variety: Sagamihanjiro, 2nd leave stage) in a concentration of 15 ml/pot. One day after the spraying, a conidial suspension of Sphaerotheca fuliginea (conidial concentration: 1.0×10^5 cells/ml) was applied to the plants by spray inoculation. The plants were left in a greenhouse for 14 days, so that they were fully infected with the aforementioned disease. Thereafter, the disease level on each leaf was compared with that on an untreated leaf, and the control effect of each compound was determined in the same manner as in Example 3(1).

Phytophthora infestans = assay: whole plant or invertebrate; settings: in Solanum lycopersicum, 96 h, read-out: Determination of control effect (preventive value)

Row | Compound | pest or weed control at 125 µg/mL [1] [%] | pest or weed control at 125 µg/mL (Sphaerotheca fuliginea) [%] | pest or weed control at 125 ppm (Phytophthora infestans) [%]
1 | Clc1ncnc(NCCC#Cc2ccccc2)c1-c1ccccc1 [compound 373] | 0 to 60 | 0 to 60 | 0 to 60
2 | COc1ccc(C#CCCNc2ncnc3sccc23)cc1 [compound 23] | 60 to 100 | 60 to 100 | 60 to 100
3 | COCc1ccc(C)cc1C#CCCNc1ncnc2ccccc12 [compound 144] | 60 to 100 | 60 to 100 | 60 to 100
4 | CN(c1ccc(C#CCCNc2ncnc3ccccc23)cc1)S(C)(=O)=O [compound 124] | 60 to 100 | 0 to 60 | 0 to 60
5 | CC(CC#Cc1ccc(C(F)(C(F)(F)F)C(F)(F)F)cc1Cl)Nc1ncnc2ccccc12 (stereo not drawn) [compound 281] | 60 to 100 | 60 to 100 | 0 to 60
6 | COCc1ccccc1C#CCCNc1ncnc2cc(Br)ccc12 [compound 320] | 60 to 100 | 60 to 100 | 0 to 60
7 | Fc1ccc(F)c(C#CCCNc2ncnc3ccccc23)c1 [compound 163] | 60 to 100 | 60 to 100 | 60 to 100
8 | OCc1ccccc1C#CCCNc1ncnc2ccccc12 [compound 130] | 60 to 100 | 60 to 100 | 60 to 100
9 | C#CCC(Nc1ncnc2ccccc12)c1ccccc1 (stereo not drawn) [compound 300, 4-[(1-Phenyl-3-butynyl)amino]quinazoline] | 60 to 100 | 60 to 100 | 0 to 60
10 | CC(C)Oc1ccccc1C#CCCNc1ncnc2ccccc12 [compound 119] | 60 to 100 | 60 to 100 | 60 to 100
11 | Cc1ncnc(NC(C)CC#Cc2ccccc2)c1Cl (stereo not drawn) [compound 389] | 60 to 100 | 60 to 100 | 0 to 60
12 | CSc1ccc(C#CCCNc2ncnc3ccccc23)cc1 [compound 117] | 60 to 100 | 60 to 100 | 60 to 100
13 | C(#Cc1ccc2ncccc2c1)CCNc1ncnc2ccccc12 [compound 190] | 60 to 100 | 0 to 60 | 0 to 60
14 | COCc1ccccc1C#CCCNc1ncnc2cc(F)c(F)cc12 [compound 319] | 60 to 100 | 60 to 100 | 60 to 100
15 | COCc1ccccc1C#CCCNc1ncnc2cc(C(F)(F)F)ccc12 [compound 324] | 60 to 100 | 0 to 60 | 0 to 60
16 | CC(CC#Cc1ccc(Cl)cc1C(F)(F)F)Nc1ncnc2cccc(F)c12 (stereo not drawn) [compound 346] | 60 to 100 | 60 to 100 | 0 to 60
17 | CC(CC#Cc1ccc(Cl)cc1)Nc1ncnc2ccccc12 (stereo not drawn) [compound 273] | 60 to 100 | 60 to 100 | 60 to 100
18 | COCc1cc(F)ccc1C#CCCNc1ncnc2ccccc12 [compound 139] | 60 to 100 | 60 to 100 | 60 to 100
19 | COCc1ccc(C#CCCNc2ncnc3ccccc23)cc1 [compound 136] | 60 to 100 | 60 to 100 | 0 to 60
20 | COCc1ccccc1C#CCCNc1ncnc2ccc(OCc3ccccc3)cc12 [compound 340] | 60 to 100 | 0 to 60 | 0 to 60

Row | Compound | pest or weed control at 125 µg/mL [1] [%] | pest or weed control at 125 µg/mL (Sphaerotheca fuliginea) [%] | pest or weed control at 125 ppm (Phytophthora infestans) [%]
21 | Cc1ccccc1C#CCCNc1ncnc2sccc12 [compound 17] | 60 to 100 | 60 to 100 | 60 to 100
22 | Cc1nc(C#CCCNc2ncnc3ccccc23)cs1 [compound 211] | 60 to 100 | 60 to 100 | 60 to 100
23 | CNC(=O)c1ccc(C#CCCNc2ncnc3ccccc23)cc1 [compound 126] | 60 to 100 | 0 to 60 | 60 to 100
24 | COCc1ccccc1C#CCCNc1ncnc2c(OC)cccc12 [compound 328] | 60 to 100 | 60 to 100 | 0 to 60
25 | Cc1cc(C)c(C#CCCNc2ncnc3ccccc23)c(C)c1 [compound 181] | 60 to 100 | 60 to 100 | 0 to 60
26 | CN(C)S(=O)(=O)c1ccccc1C#CCCNc1ncnc2ccccc12 [compound 161] | 60 to 100 | 0 to 60 | 60 to 100
27 | CSCc1ccccc1C#CCCNc1ncnc2ccccc12 [compound 152] | 60 to 100 | 0 to 60 | 0 to 60
28 | COCc1ccccc1C#CCCNc1ncnc2ccc(-c3ccccc3F)cc12 [compound 334] | 60 to 100 | 0 to 60 | 0 to 60
29 | COCc1ccccc1C#CCCNc1ncnc2ccc(OCC#Cc3ccccc3)cc12 [compound 339] | 60 to 100 | 0 to 60 | 0 to 60
30 | C(#Cc1cccs1)CCNc1ncnc2ccccc12 [compound 204] | 60 to 100 | 60 to 100 | 60 to 100
31 | C(#Cc1ccccc1)CCNc1ncnc2[nH]ccc12 [compound 379] | 0 to 60 | 60 to 100 | 0 to 60
32 | COC(C)c1ccccc1C#CCCNc1ncnc2ccccc12 (stereo not drawn) [compound 137] | 60 to 100 | 60 to 100 | 0 to 60
33 | COc1cc(OC)nc(C#CCCNc2ncnc3sccc23)n1 [compound 60] | 60 to 100 | 0 to 60 | 60 to 100
34 | Fc1ccc(Oc2nc(C#CCCNc3ncnc4ccccc34)cs2)cc1 [compound 226] | 60 to 100 | 60 to 100 | 60 to 100
35 | COCc1ccccc1C#CCCNc1ncnc(Cl)c1Br [compound 366] | 60 to 100 | 60 to 100 | 60 to 100
36 | COCc1ccccc1C#CCC(C)Nc1ncnc2ccccc12 (stereo not drawn) [compound 278] | 60 to 100 | 60 to 100 | 60 to 100
37 | CC(CC#Cc1ccc(C(F)(F)F)cc1Cl)Nc1ncnc2ccccc12 (stereo not drawn) [compound 282] | 60 to 100 | 60 to 100 | 0 to 60
38 | CC(C)C(CC#Cc1ccccc1)Nc1ncnc2ccccc12 (stereo not drawn) [compound 298] | 60 to 100 | 60 to 100 | 60 to 100
39 | Brc1csc(C#CCCNc2ncnc3sccc23)n1 [compound 64] | 60 to 100 | 0 to 60 | 0 to 60
